Test [1] deals with T1, dopamine transporter (DAT) (Macaca fascicularis, UniProt Q9GJT6).
T1 construct: The caudate-putamen will be dissected from coronal slices; from tissue; host or cells: cynomolgus monkey caudate-putamen membranes
Put plainly: Dopamine transporter assay: inhibition of 3H-WIN35,428 binding, caudate-putamen membranes. The arrangement: species or system cynomolgus monkey (Macaca fascicularis). As to conditions: for Selectivity DAT V. SERT: ratio of SERT IC50 to DAT IC50.

The subject of test [2] is dopamine transporter (DAT). The following applies: potency ratio versus (1S)-(+)-cocaine; cited from earlier work.
The target in test [3] is T2, serotonin transporter (SERT) (Macaca fascicularis, UniProt A7KAX8).
T2 construct: The serotonin transporter is assayed in caudate-putamen membranes; from tissue; host or cells: cynomolgus monkey caudate-putamen membranes
T2 sequence (A7KAX8 1-630): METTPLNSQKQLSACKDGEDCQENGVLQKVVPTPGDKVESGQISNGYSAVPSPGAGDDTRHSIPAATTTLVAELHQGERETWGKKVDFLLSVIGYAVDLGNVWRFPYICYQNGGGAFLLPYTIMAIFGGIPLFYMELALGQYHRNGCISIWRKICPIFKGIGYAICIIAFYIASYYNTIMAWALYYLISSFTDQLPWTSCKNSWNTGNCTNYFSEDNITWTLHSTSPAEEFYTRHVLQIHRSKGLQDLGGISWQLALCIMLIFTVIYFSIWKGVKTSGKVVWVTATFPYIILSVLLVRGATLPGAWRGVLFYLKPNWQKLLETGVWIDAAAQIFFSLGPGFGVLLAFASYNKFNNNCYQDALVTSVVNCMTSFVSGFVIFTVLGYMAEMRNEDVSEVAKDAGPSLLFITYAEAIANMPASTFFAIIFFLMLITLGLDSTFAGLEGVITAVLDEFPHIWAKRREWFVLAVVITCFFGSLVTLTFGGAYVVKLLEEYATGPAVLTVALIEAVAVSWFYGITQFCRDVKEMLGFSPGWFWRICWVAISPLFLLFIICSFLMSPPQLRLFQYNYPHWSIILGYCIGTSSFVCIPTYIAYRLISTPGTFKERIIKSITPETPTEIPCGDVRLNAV
Put plainly: Serotonin transporter assay: inhibition of 3H-citalopram binding, caudate-putamen membranes. The arrangement: species or system cynomolgus monkey (Macaca fascicularis). How it is done:
It is also important to measure the selectivity of the candidate of the dopamine compared with the serotonin transporter. The serotonin transporter is also detectable in the striatum, the brain region with the highest density of dopamine neurons and in brain regions surrounding the striatum. […] Therefore, a measure of probe affinity of the serotonin transport is conducted by assays paralleling the dopamine transporter assays.
Brain tissue from adult male and female cynomolgus monkeys (Macaca fascicularis) is stored at −85° C. in the primate -brain bank at the New England Regional Primate Research Center. […] Membranes are prepared as described previously. Briefly, the caudate-putamen is homogenized in 10 volumes (w/v) of ice-cold Tris.HCl buffer (50 mM, pH 7.4 at 4° C.) and centrifuged at […] for 20 min in the cold. The resulting pellet is suspended in 40 volumes of buffer, and the entire procedure is repeated twice.
The serotonin transporter is assayed in caudate-putamen membranes using conditions similar to those for the dopamine transporter. […] The 2 h incubation (0-4° C.) is initiated by addition of membranes and terminated by rapid filtration over Whatman GF/B glass fiber filters pre-soaked in 0.1% polyethyleneimine. The filters are washed twice with 5 ml Tris.HCl buffer (50 mM) and the remaining steps are carried out as described above. […] Specific binding is the difference between the two values.
Data are analyzed by EBDA and LIGAND computer software (Elsevier-Biosoft, UK) Final estimates of IC50 and nH values are computed by the EBDA program. Baseline values for the individual drugs are established by computer analysis using the baseline drugs as guide. The LIGAND program provides final parameter estimates of the novel compounds by iterative non-linear curve-fitting and evaluation of one- or two-component binding models.

Setting [4] is: Table 1, inhibition of 3H-WIN35,428 binding, cynomolgus monkey caudate-putamen, read-out: IC50 (nM DAT).
[5] abbreviates: Table 1, inhibition of 3H-citalopram binding, cynomolgus monkey caudate-putamen, read-out: IC50 (nM SERT).

Consider 9 molecules from patent publication US20020010207A1, “Tropane analogs and methods for inhibition of monoamine transport” (priority 2000, published 2002).

Values joined by “and” are separate entries in the source; they are usually repeats but may differ in a detail not shown here. Equal values may be shown once. Read-outs that look alike come from different tables or passages of the source.

T1 sequence (Q9GJT6 whole entry): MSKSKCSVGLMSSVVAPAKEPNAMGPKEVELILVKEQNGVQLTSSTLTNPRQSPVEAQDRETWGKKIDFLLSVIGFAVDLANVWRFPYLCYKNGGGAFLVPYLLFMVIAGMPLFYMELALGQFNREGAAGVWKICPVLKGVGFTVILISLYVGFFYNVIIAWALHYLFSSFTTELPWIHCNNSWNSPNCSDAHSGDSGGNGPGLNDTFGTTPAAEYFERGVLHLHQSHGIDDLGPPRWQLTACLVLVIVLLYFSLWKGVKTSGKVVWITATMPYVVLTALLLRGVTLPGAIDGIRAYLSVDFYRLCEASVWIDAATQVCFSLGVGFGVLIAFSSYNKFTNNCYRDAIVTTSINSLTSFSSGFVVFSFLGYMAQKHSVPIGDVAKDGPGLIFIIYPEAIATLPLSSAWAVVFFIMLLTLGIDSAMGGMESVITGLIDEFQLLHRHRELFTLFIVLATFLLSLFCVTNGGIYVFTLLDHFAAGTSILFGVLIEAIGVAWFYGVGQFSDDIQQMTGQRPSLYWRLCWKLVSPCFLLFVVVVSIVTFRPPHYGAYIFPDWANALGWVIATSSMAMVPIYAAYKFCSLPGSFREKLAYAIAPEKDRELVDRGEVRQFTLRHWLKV

Regarding `COC(=O)[C@H]1[C@@H](c2ccc(Cl)c(Cl)c2)C[C@@H]2CC[C@H]1N2C` [(1R)-3β-(3,4-di-chlorophenyl)-tropane-2β-carboxylic acid methyl ester, reference compound], the IC50 (as a rule, the concentration needed to halve the response being measured) in test [1] came out at 1.09 nM. For the same molecule, the “Selectivity DAT V. SERT” value in test [1] (Table 1) came out at 2.
Turning to `COC(=O)[C@H]1[C@@H](OC(=O)c2ccccc2)C[C@@H]2CC[C@H]1N2C` [(1R)-(−)-cocaine], the “binds at the dopamine transporter more potently than the unnatural isomer (1S)-(+)-cocaine” value in test [2] is reported as “about 200 fold”.
On to `COC(=O)C1C(c2ccc(Cl)c(Cl)c2)CC2CC(O)C1N2` (stereo not drawn) [Compound 10, 2β-Carbomethoxy-3-(3,4-dichlorophenyl)-7-hydroxy-8-azabicyclo(3.2.1)octane], for which the IC50 in test [1] (setting [4]) is 1 nM; in test [3] (setting [5]), 1450 nM.
For `COC(=O)C1C(c2ccc(Cl)c(Cl)c2)CC2CC(O)C1N2C` (stereo not shown) [Compound 11], the IC50 is 1 nM in test [1] (setting [4]) and 20 nM in test [3] (setting [5]). For the same molecule, in test [1] (Table 1), the “Selectivity DAT V. SERT” value came out at 20.
For `COC(=O)C1C(c2ccc(Cl)c(Cl)c2)CC2CC(OC)C1N2` (stereo not drawn) [Compound 14, 2β-carbomethoxy-3β-(3,4-dichlorophenyl)-7-methoxy-8-azabicyclo(3.2.1)octane], the IC50 was found to be 86 nM in test [1] (setting [4]) and 884 nM in test [3] (setting [5]). In addition, in test [1] (Table 1), the “Selectivity DAT V. SERT” value is given as 10.
For `COC(=O)C1C(c2ccc(Cl)c(Cl)c2)CC2CC(OC)C1N2` (stereo not drawn) [Compound 15, 2β-Carbomethoxy-3-(3,4-dichlorophenyl)-7-methoxy-8-azabicyclo(3.2.1)octane], the half-maximal inhibitory concentration (IC50) in test [1] (setting [4]) is 92 nM; in test [3] (setting [5]), 5220 nM. In addition, the “Selectivity DAT V. SERT” value in test [1] (Table 1) is given as 57.
On to `COC(=O)C1=C(c2ccc(Cl)c(Cl)c2)CC2CC[C@H]1O2` [Compound 47e, (1R)-2-Carbomethoxy-3-(3,4-dichlorophenyl)-8-oxabicyclo(3.2.1)-2-octene], for which the IC50 in test [1] (read-out: IC50 (nM) DAT) was 4.6 nM; in test [3] (read-out: IC50 (nM) SERT), 2120 nM.
`COC(=O)C1=C(c2ccc(Cl)c(Cl)c2)CC2CC[C@@H]1O2` [Compound 47f, (1S)-2-Carbomethoxy-3-(3,4-dichlorophenyl)-8-oxabicyclo(3.2.1)-2-octene]: the “Selectivity DAT V. SERT” value in test [1] (Table 2, 2,3-enes) is 800 and 802. For the same molecule, the IC50 in test [1] (read-out: IC50 (nM) DAT) came out at 58.2 nM; in test [3] (read-out: IC50 (nM) SERT), 46700 nM.
On to `COC(=O)C1=C(c2ccc(Cl)c(Cl)c2)CC2CCC1N2C` (stereo not shown) [Compound 48], for which the values for the concentration for half-maximal inhibition (IC50) in test [1] and in test [3] were 1.1 nM and 867 nM, respectively. Further, the “Selectivity DAT V. SERT” value in test [1] (Table 2, 2,3-enes) was determined as 790.
